US7943770B2, “Fused quinoline derivative and use thereof” (Takeda Pharmaceutical Company Limited, priority 2004, dated 2011)

Target: T1, hNK2 receptor (Homo sapiens, UniProt P21452)
T1 construct: host or cells: CHO cells
T1 sequence (P21452 1-398): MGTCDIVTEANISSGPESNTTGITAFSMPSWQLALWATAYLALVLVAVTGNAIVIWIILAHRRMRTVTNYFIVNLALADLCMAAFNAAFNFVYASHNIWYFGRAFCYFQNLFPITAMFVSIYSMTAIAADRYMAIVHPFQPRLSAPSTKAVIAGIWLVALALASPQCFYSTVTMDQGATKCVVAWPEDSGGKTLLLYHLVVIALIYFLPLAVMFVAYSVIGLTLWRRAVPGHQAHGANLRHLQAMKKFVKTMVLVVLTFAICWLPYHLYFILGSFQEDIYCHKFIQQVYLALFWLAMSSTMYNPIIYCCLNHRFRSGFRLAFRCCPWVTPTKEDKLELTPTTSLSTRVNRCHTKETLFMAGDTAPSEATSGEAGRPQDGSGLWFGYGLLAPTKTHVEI
Test: Radio-ligand ([125I]-NKA) receptor binding inhibitory activity using membrane fraction of hNK2 receptor-expressing CHO cell
Settings: membrane fraction of hNK2 receptor-expressing CHO cells, 25° C., 30 min
Outline: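 Inhibition of [125I]-NKA binding ([…] solution added) measured after 30 min at 25 °C using hNK2-CHO membrane fraction (20 μg/mL suspension) in pH 7.4 Tris buffer containing MnCl2, BSA and protease inhibitors. Filter-bound counts read; activity calculated as fraction of specific binding, non-specific defined with unlabeled NKA.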

| IC50 [nM] | Structure (SMILES) |
| --- | --- |
| < 1 | NC(=O)c1ccc(NC(=O)N[C@@H]2CCCC[C@@H]2C(=O)N2CC[C@@H]3[C@H](c4ccccc4)Nc4ccccc4[C@@H]32)cc1 [Example 160, 4-({[((1R,25)-2-{[(3aR,4R,9bR)-4-Phenyl-2,3,3a,4,5,9b-hexahydro-1H-pyrrolo[3,2-c]quinolin-1-yl]carbonyl}cyclohexyl)amino]carbonyl}amino)benzamide] |
| < 10 | COCCCNC(=O)N[C@@H]1CCCC[C@@H]1C(=O)N1CC[C@@H]2[C@H](c3ccccc3)Nc3ccccc3[C@@H]21 [Example 161, N-(3-Methoxypropyl)-N′-((1R,2S)-2-{[(3aR,4R,9bR)-4-phenyl-2,3,3a,4,5,9b-hexahydro-1H-pyrrolo[3,2-c]quinolin-1-yl]carbonyl}cyclohexyl)urea] |
| < 10 | CCOCCNC(=O)N[C@@H]1CCCC[C@@H]1C(=O)N1CC[C@@H]2[C@H](c3ccccc3)Nc3ccccc3[C@@H]21 [Example 162, N-(2-Ethoxyethyl)-N′-((1R,2S)-2-{[(3aR,4R,9bR)-4-phenyl-2,3,3a,4,5,9b-hexahydro-1H-pyrrolo[3,2-c]quinolin-1-yl]carbonyl}cyclohexyl)urea] |
| < 1 | O=C(NCCc1ccccn1)N[C@@H]1CCCC[C@@H]1C(=O)N1CC[C@@H]2[C@H](c3ccccc3)Nc3ccccc3[C@@H]21 [Example 164, N-((1R,2S)-2-{[(3aR,4R,9bR)-4-Phenyl-2,3,3a,4,5,9b-hexahydro-1H-pyrrolo[3,2-c]quinolin-1-yl]carbonyl}cyclohexyl)-N′-(2-pyridin-2-ylethyl)urea] |
| < 1 | CC(C)CCNC(=O)N[C@@H]1CCCC[C@@H]1C(=O)N1CC[C@@H]2[C@H](c3ccccc3)Nc3ccccc3[C@@H]21 [Example 166, N-(3-Methylbutyl)-N′-((1R,2S)-2-{[(3aR,4R,9bR)-4-phenyl-2,3,3a,4,5,9b-hexahydro-1H-pyrrolo[3,2-c]quinolin-1-yl]carbonyl}cyclohexyl)urea] |
| < 10 | O=C(NCCCN1CCCC1=O)N[C@@H]1CCCC[C@@H]1C(=O)N1CC[C@@H]2[C@H](c3ccccc3)Nc3ccccc3[C@@H]21 [Example 168, N-[3-(2-oxopyrrolidin-1-yl)propyl]-N′-((1R,2S)-2-{[(3aR,4R,9bR)-4-phenyl-2,3,3a,4,5,9b-hexahydro-1H-pyrrolo[3,2-c]quinolin-1-yl]carbonyl}cyclohexyl)urea] |
| < 10 | O=C(Nc1ccccn1)N[C@@H]1CCCC[C@@H]1C(=O)N1CC[C@@H]2[C@H](c3ccccc3)Nc3ccccc3[C@@H]21 [Example 170, N-((1R,2S)-2-{[(3aR,4R,9bR)-4-Phenyl-2,3,3a,4,5,9b-hexahydro-1H-pyrrolo[3,2-c]quinolin-1-yl]carbonyl}cyclohexyl)-N′-pyridin-2-ylurea] |
| < 10 | O=C(Nc1cccnc1)N[C@@H]1CCCC[C@@H]1C(=O)N1CC[C@@H]2[C@H](c3ccccc3)Nc3ccccc3[C@@H]21 [Example 171, N-((1R,2S)-2-{[(3aR,4R,9bR)-4-Phenyl-2,3,3a,4,5,9b-hexahydro-1H-pyrrolo[3,2-c]quinolin-1-yl]carbonyl}cyclohexyl)-N′-pyridin-3-ylurea] |
| < 10 | O=C(N[C@@H]1CCCC[C@@H]1C(=O)N1CC[C@@H]2[C@H](c3ccccc3)Nc3ccccc3[C@@H]21)N1CCC(c2ccccc2)CC1 [Example 172, 4-Phenyl-N-((1R,2S)-2-{[(3aR,4R,9bR)-4-phenyl-2,3,3a,4,5,9b-hexahydro-1H-pyrrolo[3,2-c]quinolin-1-yl]carbonyl}cyclohexyl)piperidine-1-carboxamide] |
| < 10 | O=C(NCC(F)(F)F)N[C@@H]1CCCC[C@@H]1C(=O)N1CC[C@@H]2[C@H](c3ccccc3)Nc3ccccc3[C@@H]21 [Example 173, N-((1R,2S)-2-{[(3aR,4R,9bR)-4-Phenyl-2,3,3a,4,5,9b-hexahydro-1H-pyrrolo[3,2-c]quinolin-1-yl]carbonyl}cyclohexyl)-N′-(2,2,2-trifluoroethyl)urea] |
| < 10 | CC(=O)N1CCC(NC(=O)N[C@@H]2CCCC[C@@H]2C(=O)N2CC[C@@H]3[C@H](c4ccccc4)Nc4ccccc4[C@@H]32)CC1 [Example 175, N-(1-Acetylpiperidin-4-yl)-N′-((1R,2S)-2-{[(3aR,4R,9bR)-4-phenyl-2,3,3a,4,5,9b-hexahydro-1H-pyrrolo[3,2-c]quinolin-1-yl]carbonyl}cyclohexyl)urea] |
| < 10 | O=C(N[C@@H]1C2CCC(CC2)[C@@H]1C(=O)N1CC[C@@H]2[C@H](c3ccccc3)Nc3ccccc3[C@@H]21)c1ccccc1 [Example 178, N-((2R,3S)-3-{[(3aR,4R,9bR)-4-Phenyl-2,3,3a,4,5,9b-hexahydro-1H-pyrrolo[3,2-c]quinolin-1-yl]carbonyl}bicyclo[2.2.2]oct-2-yl)benzamide] |
| < 1 | COc1ccc(C(=O)N[C@@H]2CCCC[C@@H]2C(=O)N2CC[C@@H]3[C@H](C4CC4)Nc4ccccc4[C@@H]32)cc1 [Example 180, N-((1R,2S)-2-{[(3aR,4S,9bR)-4-Cyclopropyl-2,3,3a,4,5,9b-hexahydro-1H-pyrrolo[3,2-c]quinolin-1-yl]carbonyl}cyclohexyl)-4-methoxybenzamide] |
| < 1 | O=C(CCc1ccccc1)N[C@@H]1CCCC[C@@H]1C(=O)N1CC[C@@H]2[C@H](C3CC3)Nc3ccccc3[C@@H]21 [Example 181, N-((1R,2S)-2-{[(3aR,4S,9bR)-4-Cyclopropyl-2,3,3a,4,5,9b-hexahydro-1H-pyrrolo[3,2-c]quinolin-1-yl]carbonyl}cyclohexyl)-3-phenylpropanamide] |
| < 1 | O=C(N[C@@H]1CCCC[C@@H]1C(=O)N1CC[C@@H]2[C@H](C3CC3)Nc3ccccc3[C@@H]21)c1ccc(F)cc1 [Example 182, N-((1R,2S)-2-{[(3aR,4S,9bR)-4-Cyclopropyl-2,3,3a,4,5,9b-hexahydro-1H-pyrrolo[3,2-c]quinolin-1-yl]carbonyl}cyclohexyl)-4-fluorobenzamide] |
| < 1 | O=C(Nc1ccccc1)N[C@@H]1CCCC[C@@H]1C(=O)N1CC[C@@H]2[C@H](C3CC3)Nc3ccccc3[C@@H]21 [Example 183, N-((1R,2S)-2-{[(3aR,4S,9bR)-4-Cyclopropyl-2,3,3a,4,5,9b-hexahydro-1H-pyrrolo[3,2-c]quinolin-1-yl]carbonyl}cyclohexyl)-N′-phenylurea] |
| < 1 | COc1ccc(NC(=O)N[C@@H]2CCCC[C@@H]2C(=O)N2CC[C@@H]3[C@H](C4CC4)Nc4ccccc4[C@@H]32)cc1 [Example 184, N-((1R,2S)-2-{[(3aR,4S,9bR)-4-Cyclopropyl-2,3,3a,4,5,9b-hexahydro-1H-pyrrolo[3,2-c]quinolin-1-yl]carbonyl}cyclohexyl)-N′-(4-methoxyphenyl)urea] |
| < 10 | CCNC(=O)N[C@@H]1CCCC[C@@H]1C(=O)N1CC[C@@H]2[C@H](C3CC3)Nc3ccccc3[C@@H]21 [Example 185, N-((1R,2S)-2-{[(3aR,4S,9bR)-4-Cyclopropyl-2,3,3a,4,5,9b-hexahydro-1H-pyrrolo[3,2-c]quinolin-1-yl]carbonyl}cyclohexyl)-N′-ethylurea] |
| < 1 | O=C(Nc1ccccc1)N[C@@H]1CCCC[C@@H]1C(=O)N1CC[C@@H]2[C@H](c3ccsc3)Nc3ccccc3[C@@H]21 [Example 186, N-Phenyl-N′-((1R,2S)-2-{[(3aR,4R,9bR)-4-(3-thienyl)-2,3,3a,4,5,9b-hexahydro-1H-pyrrolo[3,2-c]quinolin-1-yl]carbonyl}cyclohexyl)urea] |
| < 1 | CCNC(=O)N[C@@H]1CCCC[C@@H]1C(=O)N1CC[C@@H]2[C@H](c3ccsc3)Nc3ccccc3[C@@H]21 [Example 187, N-Ethyl-N′-((1R,2S)-2-{[(3aR,4R,9bR)-4-(3-thienyl)-2,3,3a,4,5,9b-hexahydro-1H-pyrrolo[3,2-c]quinolin-1-yl]carbonyl}cyclohexyl)urea] |
| < 1 | CCCCNC(=O)N[C@@H]1CCCC[C@@H]1C(=O)N1CC[C@@H]2[C@H](c3ccsc3)Nc3ccccc3[C@@H]21 [Example 188, N-Butyl-N′-((1R,2S)-2-{[(3aR,4R,9bR)-4-(3-thienyl)-2,3,3a,4,5,9b-hexahydro-1H-pyrrolo[3,2-c]quinolin-1-yl]carbonyl}cyclohexyl)urea] |
| < 1 | O=C(N[C@@H]1CCCC[C@@H]1C(=O)N1CC[C@@H]2[C@H](c3ccsc3)Nc3ccccc3[C@@H]21)c1ccc2[nH]nnc2c1 [Example 189, N-((1R,2S)-2-{[(3aR,4R,9bR)-4-(3-Thienyl)-2,3,3a,4,5,9b-hexahydro-1H-pyrrolo[3,2-c]quinolin-1-yl]carbonyl}cyclohexyl)-1H-1,2,3-benzotriazole-5-carboxamide] |
| < 1 | NC(=O)c1ccc(C(=O)N[C@@H]2CCCC[C@@H]2C(=O)N2CC[C@@H]3[C@H](c4ccsc4)Nc4ccccc4[C@@H]32)cc1 [Example 190, N-((1R,2S)-2-{[(3aR,4R,9bR)-4-(3-Thienyl)-2,3,3a,4,5,9b-hexahydro-1H-pyrrolo[3,2-c]quinolin-1-yl]carbonyl}cyclohexyl)terephthalamide] |
| < 1 | Cc1cc(C(=O)N[C@@H]2CCCC[C@@H]2C(=O)N2CC[C@@H]3[C@H](c4ccsc4)Nc4ccccc4[C@@H]32)ccc1C(N)=O [Example 191, 2-Methyl-N^4-((1R,2S)-2-{[(3aR,4R,9bR)-4-(3-thienyl)-2,3,3a,4,5,9b-hexahydro-1H-pyrrolo[3,2-c]quinolin-1-yl]carbonyl}cyclohexyl)terephthalamide] |
